# Experiments:
# Test in all cases: KINOMEscan competition binding
# Details in all cases: compound 10.0 µM
# ACVR1B (human) = ACVR1B (human) (UniProt P36896)
# ACVR2A (human) = ACVR2A (human) (UniProt P27037)
# AKT1 (human) = AKT1 (human) (UniProt P31749)
# BMPR1A (human) = BMPR1A (human) (UniProt P36894)
# CAMKK2 (human) = CAMKK2 (human) (UniProt Q96RR4)
# CDC42BPB (human) = CDC42BPB (human) (UniProt Q9Y5S2)
# CDK15 (human) = CDK15 (human) (UniProt Q96Q40)
# CDK7 (human) = CDK7 (human) (UniProt P50613)
# CDK7 (human), sequence (P50613 whole entry, looked up): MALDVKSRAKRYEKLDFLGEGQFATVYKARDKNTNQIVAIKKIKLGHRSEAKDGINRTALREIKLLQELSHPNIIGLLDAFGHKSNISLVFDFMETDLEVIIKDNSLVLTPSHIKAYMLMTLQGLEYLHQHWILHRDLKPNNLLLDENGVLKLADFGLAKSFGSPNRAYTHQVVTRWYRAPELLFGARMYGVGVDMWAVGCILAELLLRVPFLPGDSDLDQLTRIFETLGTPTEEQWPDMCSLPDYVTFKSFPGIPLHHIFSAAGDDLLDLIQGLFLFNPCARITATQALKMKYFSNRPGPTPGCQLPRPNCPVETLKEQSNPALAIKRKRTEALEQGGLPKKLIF
# CSNK1D (human) = CSNK1D (human) (UniProt P48730)
# CSNK1D (human), sequence (P48730 whole entry, looked up): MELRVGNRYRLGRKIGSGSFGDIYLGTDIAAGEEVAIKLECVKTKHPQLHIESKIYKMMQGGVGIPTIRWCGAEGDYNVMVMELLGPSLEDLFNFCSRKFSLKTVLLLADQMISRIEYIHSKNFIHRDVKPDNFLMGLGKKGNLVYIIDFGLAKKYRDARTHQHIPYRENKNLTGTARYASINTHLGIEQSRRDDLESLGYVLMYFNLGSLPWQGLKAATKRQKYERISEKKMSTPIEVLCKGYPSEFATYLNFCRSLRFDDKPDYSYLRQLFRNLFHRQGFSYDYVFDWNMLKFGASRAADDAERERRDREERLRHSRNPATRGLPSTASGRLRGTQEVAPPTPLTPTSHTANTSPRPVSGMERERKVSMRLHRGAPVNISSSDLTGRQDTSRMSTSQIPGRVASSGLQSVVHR
# DCLK1 (human) = DCLK1 (human) (UniProt O15075)
# DDR1 (human) = DDR1 (human) (UniProt Q08345)
# DDR1 (human), sequence (Q08345 whole entry, looked up): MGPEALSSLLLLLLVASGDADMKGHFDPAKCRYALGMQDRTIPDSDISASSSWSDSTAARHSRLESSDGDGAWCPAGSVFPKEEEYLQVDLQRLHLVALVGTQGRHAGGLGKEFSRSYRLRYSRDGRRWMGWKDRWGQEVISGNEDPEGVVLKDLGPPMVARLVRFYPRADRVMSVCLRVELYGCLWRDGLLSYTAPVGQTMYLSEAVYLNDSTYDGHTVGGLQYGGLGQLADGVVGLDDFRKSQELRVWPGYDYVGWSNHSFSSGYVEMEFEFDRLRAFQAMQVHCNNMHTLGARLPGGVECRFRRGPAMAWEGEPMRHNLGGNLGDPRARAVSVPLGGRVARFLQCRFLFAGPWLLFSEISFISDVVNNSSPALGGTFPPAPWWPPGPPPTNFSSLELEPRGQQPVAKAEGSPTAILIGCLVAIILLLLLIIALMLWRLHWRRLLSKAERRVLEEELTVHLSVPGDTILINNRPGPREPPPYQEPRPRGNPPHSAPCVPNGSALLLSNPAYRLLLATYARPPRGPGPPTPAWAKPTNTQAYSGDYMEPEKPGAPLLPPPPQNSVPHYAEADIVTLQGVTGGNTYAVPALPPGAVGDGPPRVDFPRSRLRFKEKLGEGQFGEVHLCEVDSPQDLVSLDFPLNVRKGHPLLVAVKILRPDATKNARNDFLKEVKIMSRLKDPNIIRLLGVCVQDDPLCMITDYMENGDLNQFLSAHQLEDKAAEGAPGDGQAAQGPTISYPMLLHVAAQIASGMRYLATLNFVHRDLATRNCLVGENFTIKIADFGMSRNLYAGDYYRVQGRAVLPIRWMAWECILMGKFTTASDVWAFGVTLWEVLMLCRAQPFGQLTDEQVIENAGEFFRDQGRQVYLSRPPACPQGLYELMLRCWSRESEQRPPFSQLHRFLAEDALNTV
# EPHB3 (human) = EPHB3 (human) (UniProt P54753)
# ERBB4 (human) = ERBB4 (human) (UniProt Q15303)
# ERN1 (human) = ERN1 (human) (UniProt O75460)
# FGFR4 (human) = FGFR4 (human) (UniProt P22455)
# HIPK3 (human) = HIPK3 (human) (UniProt Q9H422)
# HIPK3 (human), sequence (Q9H422 whole entry, looked up): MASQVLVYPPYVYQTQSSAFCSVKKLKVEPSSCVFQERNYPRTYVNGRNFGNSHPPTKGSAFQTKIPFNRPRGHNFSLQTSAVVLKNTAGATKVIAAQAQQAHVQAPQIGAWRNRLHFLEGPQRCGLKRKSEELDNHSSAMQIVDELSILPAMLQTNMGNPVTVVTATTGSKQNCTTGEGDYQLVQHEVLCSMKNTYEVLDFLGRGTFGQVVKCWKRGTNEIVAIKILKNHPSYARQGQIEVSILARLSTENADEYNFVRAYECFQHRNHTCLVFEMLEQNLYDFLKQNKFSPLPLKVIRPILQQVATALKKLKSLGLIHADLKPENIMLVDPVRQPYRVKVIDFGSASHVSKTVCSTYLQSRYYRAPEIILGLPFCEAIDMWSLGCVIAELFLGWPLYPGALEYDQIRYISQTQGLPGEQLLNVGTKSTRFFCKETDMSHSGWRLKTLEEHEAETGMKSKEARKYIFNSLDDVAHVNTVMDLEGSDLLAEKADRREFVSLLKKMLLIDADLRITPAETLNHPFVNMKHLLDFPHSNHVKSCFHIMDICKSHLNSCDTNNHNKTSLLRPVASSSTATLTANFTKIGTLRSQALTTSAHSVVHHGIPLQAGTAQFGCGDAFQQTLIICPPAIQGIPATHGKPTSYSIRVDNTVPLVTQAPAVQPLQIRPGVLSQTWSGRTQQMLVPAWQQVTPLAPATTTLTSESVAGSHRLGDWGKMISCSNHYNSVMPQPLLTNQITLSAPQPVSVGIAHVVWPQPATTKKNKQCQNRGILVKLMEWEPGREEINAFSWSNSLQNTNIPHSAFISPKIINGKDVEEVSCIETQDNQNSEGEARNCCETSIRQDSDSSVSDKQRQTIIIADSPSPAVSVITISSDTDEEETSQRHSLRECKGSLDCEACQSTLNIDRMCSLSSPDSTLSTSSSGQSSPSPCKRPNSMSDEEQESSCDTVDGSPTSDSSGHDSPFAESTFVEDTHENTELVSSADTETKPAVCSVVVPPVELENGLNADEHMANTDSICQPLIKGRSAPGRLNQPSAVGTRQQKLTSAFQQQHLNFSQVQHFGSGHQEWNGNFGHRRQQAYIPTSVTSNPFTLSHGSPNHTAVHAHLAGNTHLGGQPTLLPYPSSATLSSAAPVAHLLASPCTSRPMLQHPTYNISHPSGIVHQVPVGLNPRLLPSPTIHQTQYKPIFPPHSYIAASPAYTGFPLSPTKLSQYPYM
# IRAK3 (human) = IRAK3 (human) (UniProt Q9Y616)
# IRAK4 (human) = IRAK4 (human) (UniProt Q9NWZ3)
# MAP2K1 (human) = MAP2K1 (human) (UniProt Q02750)
# MAP3K12 (human) = MAP3K12 (human) (UniProt Q12852)
# MAP3K4 (human) = MAP3K4 (human) (UniProt Q9Y6R4)
# MARK1 (human) = MARK1 (human) (UniProt Q9P0L2)
# MARK2 (human) = MARK2 (human) (UniProt Q7KZI7)
# [1] = system: MET (human), P08581 [M1250T]
# MLTK (human) = MLTK (human) (UniProt Q9NYL2)
# NTRK1 (human) = NTRK1 (human) (UniProt P04629)
# PAK4 (human) = PAK4 (human) (UniProt O96013)
# PAK6 (human) = PAK6 (human) (UniProt Q9NQU5)
# PHKG2 (human) = PHKG2 (human) (UniProt P15735)
# PLK2 (human) = PLK2 (human) (UniProt Q9NYY3)
# PRKACA (human) = PRKACA (human) (UniProt P17612)
# PRKCQ (human) = PRKCQ (human) (UniProt Q04759)
# PRKG2 (human) = PRKG2 (human) (UniProt Q13237)
# PRKG2 (human), sequence (Q13237 whole entry, looked up): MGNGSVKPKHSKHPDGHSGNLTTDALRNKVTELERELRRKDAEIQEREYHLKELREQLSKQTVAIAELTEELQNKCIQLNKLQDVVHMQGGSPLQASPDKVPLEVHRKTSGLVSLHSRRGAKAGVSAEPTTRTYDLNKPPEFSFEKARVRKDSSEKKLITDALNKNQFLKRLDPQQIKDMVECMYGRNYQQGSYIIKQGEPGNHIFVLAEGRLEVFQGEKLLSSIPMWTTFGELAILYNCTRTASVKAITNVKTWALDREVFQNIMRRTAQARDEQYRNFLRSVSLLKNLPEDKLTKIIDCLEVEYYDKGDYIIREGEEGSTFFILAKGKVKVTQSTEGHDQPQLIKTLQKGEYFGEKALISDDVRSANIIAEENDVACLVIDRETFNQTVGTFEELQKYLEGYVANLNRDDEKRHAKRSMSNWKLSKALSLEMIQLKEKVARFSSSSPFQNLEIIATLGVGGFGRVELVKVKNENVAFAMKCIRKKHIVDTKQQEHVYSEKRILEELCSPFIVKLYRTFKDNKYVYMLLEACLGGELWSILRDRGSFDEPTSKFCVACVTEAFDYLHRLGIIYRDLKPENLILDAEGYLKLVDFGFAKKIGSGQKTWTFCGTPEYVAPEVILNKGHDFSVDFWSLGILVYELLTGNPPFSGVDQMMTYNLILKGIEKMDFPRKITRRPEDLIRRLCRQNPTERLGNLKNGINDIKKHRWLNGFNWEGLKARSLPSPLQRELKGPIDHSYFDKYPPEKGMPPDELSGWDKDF
# PRKX (human) = PRKX (human) (UniProt P51817)
# RIPK4 (human) = RIPK4 (human) (UniProt P57078)
# RPS6KA5 KD1 (human) = RPS6KA5 KD1 (human) (UniProt O75582)
# SRPK3 (human) = SRPK3 (human) (UniProt Q9UPE1)
# SRPK3 (human), sequence (Q9UPE1 whole entry, looked up): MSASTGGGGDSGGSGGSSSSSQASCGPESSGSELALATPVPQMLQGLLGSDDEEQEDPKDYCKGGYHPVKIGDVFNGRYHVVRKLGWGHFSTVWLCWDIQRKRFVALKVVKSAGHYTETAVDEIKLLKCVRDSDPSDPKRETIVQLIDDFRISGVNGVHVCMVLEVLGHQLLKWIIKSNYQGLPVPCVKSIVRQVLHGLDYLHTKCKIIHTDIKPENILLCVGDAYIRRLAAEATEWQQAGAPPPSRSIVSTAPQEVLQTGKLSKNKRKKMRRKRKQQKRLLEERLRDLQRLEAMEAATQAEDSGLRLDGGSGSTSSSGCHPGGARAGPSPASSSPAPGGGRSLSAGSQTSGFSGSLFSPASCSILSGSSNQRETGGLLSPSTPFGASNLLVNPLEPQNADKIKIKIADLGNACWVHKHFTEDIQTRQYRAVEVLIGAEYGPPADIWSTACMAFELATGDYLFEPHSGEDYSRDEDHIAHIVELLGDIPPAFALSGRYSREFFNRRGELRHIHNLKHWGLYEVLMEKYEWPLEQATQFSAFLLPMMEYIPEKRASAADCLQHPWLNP
# STK4 (human) = STK4 (human) (UniProt Q13043)
# TLK1 (human) = TLK1 (human) (UniProt Q9UKI8)
# TLK1 (human), sequence (Q9UKI8 whole entry, looked up): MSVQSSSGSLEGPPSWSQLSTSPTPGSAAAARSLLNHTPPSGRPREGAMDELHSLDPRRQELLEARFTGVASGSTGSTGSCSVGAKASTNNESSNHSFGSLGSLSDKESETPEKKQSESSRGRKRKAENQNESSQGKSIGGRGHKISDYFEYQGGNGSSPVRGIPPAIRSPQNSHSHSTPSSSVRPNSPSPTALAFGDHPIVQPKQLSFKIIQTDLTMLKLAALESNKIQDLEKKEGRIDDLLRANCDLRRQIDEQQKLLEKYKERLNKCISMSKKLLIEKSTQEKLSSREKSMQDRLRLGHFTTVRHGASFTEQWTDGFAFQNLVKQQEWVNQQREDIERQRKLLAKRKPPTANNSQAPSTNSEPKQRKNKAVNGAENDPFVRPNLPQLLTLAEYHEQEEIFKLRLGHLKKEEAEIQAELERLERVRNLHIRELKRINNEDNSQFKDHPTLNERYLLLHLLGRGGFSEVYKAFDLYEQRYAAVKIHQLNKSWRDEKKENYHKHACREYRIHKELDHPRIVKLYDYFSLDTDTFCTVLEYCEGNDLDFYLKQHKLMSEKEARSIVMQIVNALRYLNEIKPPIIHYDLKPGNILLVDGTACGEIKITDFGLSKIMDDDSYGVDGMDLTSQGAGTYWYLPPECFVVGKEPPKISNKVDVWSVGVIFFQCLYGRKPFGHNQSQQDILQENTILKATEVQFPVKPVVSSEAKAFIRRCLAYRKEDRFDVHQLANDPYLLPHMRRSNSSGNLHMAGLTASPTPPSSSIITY
# ULK2 (human) = ULK2 (human) (UniProt Q8IYT8)
Compound,"kinase still bound, per cent of control (ACVR1B (human)) [%]","kinase still bound, per cent of control (ACVR2A (human)) [%]","kinase still bound, per cent of control (AKT1 (human)) [%]","kinase still bound, per cent of control (BMPR1A (human)) [%]","kinase still bound, per cent of control (CAMKK2 (human)) [%]","kinase still bound, per cent of control (CDC42BPB (human)) [%]","kinase still bound, per cent of control (CDK15 (human)) [%]","kinase still bound, per cent of control (CDK7 (human)) [%]","kinase still bound, per cent of control (CSNK1D (human)) [%]","kinase still bound, per cent of control (DCLK1 (human)) [%]","kinase still bound, per cent of control (DDR1 (human)) [%]","kinase still bound, per cent of control (EPHB3 (human)) [%]","kinase still bound, per cent of control (ERBB4 (human)) [%]","kinase still bound, per cent of control (ERN1 (human)) [%]","kinase still bound, per cent of control (FGFR4 (human)) [%]","kinase still bound, per cent of control (HIPK3 (human)) [%]","kinase still bound, per cent of control (IRAK3 (human)) [%]","kinase still bound, per cent of control (IRAK4 (human)) [%]","kinase still bound, per cent of control (MAP2K1 (human)) [%]","kinase still bound, per cent of control (MAP3K12 (human)) [%]",other results
C=CC(=O)Nc1ccc(C(=O)c2sc(Nc3ccc(N4CCN(C)CC4)cc3OC)nc2N)cc1,100,100,100,91,5,100,87,5.8,72,5.6,100,76,61,7.6,26,42,96,92,100,79,"kinase still bound, per cent of control (MAP3K4 (human)): 100%; kinase still bound, per cent of control (MARK1 (human)): 93%; kinase still bound, per cent of control (MARK2 (human)): 78%; kinase still bound, per cent of control [1]: 91%; kinase still bound, per cent of control (MLTK (human)): 100%; kinase still bound, per cent of control (NTRK1 (human)): 78%; kinase still bound, per cent of control (PAK4 (human)): 95%; kinase still bound, per cent of control (PAK6 (human)): 40%; kinase still bound, per cent of control (PHKG2 (human)): 3%; kinase still bound, per cent of control (PLK2 (human)): 81%; kinase still bound, per cent of control (PRKACA (human)): 100%; kinase still bound, per cent of control (PRKCQ (human)): 93%; kinase still bound, per cent of control (PRKG2 (human)): 81%; kinase still bound, per cent of control (PRKX (human)): 99%; kinase still bound, per cent of control (RIPK4 (human)): 89%; kinase still bound, per cent of control (RPS6KA5 KD1 (human)): 100%; kinase still bound, per cent of control (SRPK3 (human)): 54%; kinase still bound, per cent of control (STK4 (human)): 100%; kinase still bound, per cent of control (TLK1 (human)): 69%; kinase still bound, per cent of control (ULK2 (human)): 9.4%"
COc1cc2ncnc(Nc3cccc(Cl)c3)c2cc1OC,100,92,100,55,72,98,75,26,54,54,1.9,97,3.5,41,98,54,30,8.9,25,92,"kinase still bound, per cent of control (MAP3K4 (human)): 83%; kinase still bound, per cent of control (MARK1 (human)): 100%; kinase still bound, per cent of control (MARK2 (human)): 74%; kinase still bound, per cent of control [1]: 94%; kinase still bound, per cent of control (MLTK (human)): 94%; kinase still bound, per cent of control (NTRK1 (human)): 88%; kinase still bound, per cent of control (PAK4 (human)): 84%; kinase still bound, per cent of control (PAK6 (human)): 94%; kinase still bound, per cent of control (PHKG2 (human)): 93%; kinase still bound, per cent of control (PLK2 (human)): 44%; kinase still bound, per cent of control (PRKACA (human)): 94%; kinase still bound, per cent of control (PRKCQ (human)): 100%; kinase still bound, per cent of control (PRKG2 (human)): 82%; kinase still bound, per cent of control (PRKX (human)): 100%; kinase still bound, per cent of control (RIPK4 (human)): 43%; kinase still bound, per cent of control (RPS6KA5 KD1 (human)): 100%; kinase still bound, per cent of control (SRPK3 (human)): 93%; kinase still bound, per cent of control (STK4 (human)): 100%; kinase still bound, per cent of control (TLK1 (human)): 87%; kinase still bound, per cent of control (ULK2 (human)): 87%"
N#Cc1cc(-c2ccnc(Nc3ccc(-n4cnc(-c5cccnc5)n4)cc3)n2)cc(N2CCOCC2)c1,76,16,100,28,52,61,55,1.2,86,100,100,88,91,54,99,5.5,12,100,50,63,"kinase still bound, per cent of control (MAP3K4 (human)): 50%; kinase still bound, per cent of control (MARK1 (human)): 84%; kinase still bound, per cent of control (MARK2 (human)): 73%; kinase still bound, per cent of control [1]: 23%; kinase still bound, per cent of control (MLTK (human)): 17%; kinase still bound, per cent of control (NTRK1 (human)): 53%; kinase still bound, per cent of control (PAK4 (human)): 31%; kinase still bound, per cent of control (PAK6 (human)): 58%; kinase still bound, per cent of control (PHKG2 (human)): 81%; kinase still bound, per cent of control (PLK2 (human)): 98%; kinase still bound, per cent of control (PRKACA (human)): 89%; kinase still bound, per cent of control (PRKCQ (human)): 100%; kinase still bound, per cent of control (PRKG2 (human)): 74%; kinase still bound, per cent of control (PRKX (human)): 55%; kinase still bound, per cent of control (RIPK4 (human)): 53%; kinase still bound, per cent of control (RPS6KA5 KD1 (human)): 100%; kinase still bound, per cent of control (SRPK3 (human)): 23%; kinase still bound, per cent of control (STK4 (human)): 89%; kinase still bound, per cent of control (TLK1 (human)): 39%; kinase still bound, per cent of control (ULK2 (human)): 90%"
